Assays:
[1] = Selectivity of DOX release from c1 towards biological analytes (LCMS); format: physicochemical; details: 80 min
Experimental: FIG. 2. Percentage of released DOX from c1 in response to various biological analytes during an 80 min incubation period at room temperature: (1) ammonium bicarbonate buffer (0.1 M, pH 7.5), (2) 10 μM H2O2, (3) 100 μM cysteine, (4) 100 μM homocysteine, (5) 1 mM glutathione, (6) 10 μM glutathione disulfide, (7) 10 µM sodium nitrite, (8) 10 μM sodium hypochlorite, (9) 10 μM superoxide, (10) 10 μM peroxynitrite. A calibration curve was used to determine the concentration of free DOX in response to each analyte. Plotted as the mean±SEM from three independent experiments.
Selectivity of c1. […] After a reaction time of 80 min, an aliquot was removed and analyzed by LCMS. […]
Analyte stock solutions of glutathione (10 mM), oxidized glutathione (10 mM), homocysteine (10 mM), L-cysteine (10 mM), sodium nitrite (NaNO2 10 mM), superoxide (KO2, 10 mM), sodium peroxynitrite (NaOONO, 10 mM), and sodium hypochlorite (NaClO, 10 mM), were prepared in ammonium bicarbonate buffer (0.1 M pH 7.4). […] After reacting for 80 min, a 1 mL (inject volume 60 μL) aliquot was removed and analyzed by LC-MS (using a C18 analytical column and eluting at 0.4 mL/min with a linear gradient (20-90% v/v) MeOH/H2O (0-2 min), followed by 90% v/v MeOH/H2O (2-19 min)). The signals in the chromatogram were recorded at 500 nm and the peak corresponding to free DOX (7.0 min) was integrated.

[2] = Methylene blue assay of H2S release; format: physicochemical; details: for H2S released: c1 40 μM
Experimental: FIG. 3. Methylene blue assay depicting the time-dependent release of H2S from c1 (40 μM) while in the presence of H2O2 (40 μM) and carbonic anhydrase (CA). Plotted as the mean±SEM from three independent experiments. Data were collected in the presence (circles) or absence (squares) of H2O2.
H2S release from c1. We confirmed the time-dependent liberation of H2S using a methylene blue assay^46 and measuring the resulting absorbance at 670 nm after c1 exposure to H2O2 (FIG. 3, circle). Using a calibration curve generated with Na2S, we determined that c1 (40 μM) was able to release more than 16 μM H2S while in the presence of both H2O2 ([…]) and carbonic anhydrase (CA). […] As a control, the same assay was also run in the absence of CA (data not shown). Under these conditions, c1 exposure to H2O2 yielded small amounts of H2S ([…]). This is presumably due to isocyanate formation and the direct release of H2S from the breakdown of 4.
With carbonic anhydrase: Six separate vials were each filled with 150 μL of freshly degassed PBS (pH 7.4) containing Zn(OAc)2 (2 mM), carbonic anhydrase (0.1 mg/mL), and DOX (80 μM). Next, 150 μL of Na2S stock solution in freshly degassed PBS (pH 7.4), and at differing concentrations (6.25, 12.5, 25.0, 50.0, 100 and 200.0 μM), was added to each vial to give a final volume of 300 μL and a final concentration of 3.125, 6.25, 12.5, 25.0, 50.0, and 100.0 µM Na2S. […] The MB solution was transferred to a 1.0 mL UV cuvette and the absorbance at 670 nm was recorded.
Without carbonic anhydrase: Six separate vials were each filled with 150 μL of freshly degassed PBS (pH 7.4) containing Zn(OAc)2 (2 mM) and DOX (80 μM). […] The MB solution was transferred to a 1.0 mL UV cuvette and the absorbance at 670 nm was recorded. […]
With carbonic anhydrase: To a 20 mL scintillation vial containing 9770 μL of freshly degassed PBS (pH 7.4) was added stock solutions of carbonic anhydrase (50 μL), H2O2 (40 μL), Zn(OAc)2 (100 μL), and c1 (or c2) (40 μL). […] After reacting for 30 min in the dark, absorbance measurements were recorded at 670 nm. […]

COc1cccc2c1C(=O)c1c(O)c3c(c(O)c1C2=O)C[C@@](O)(C(=O)CO)C[C@@H]3O[C@H]1C[C@H](NC(=S)OCc2ccc(B3OC(C)(C)C(C)(C)O3)cc2)[C@H](O)[C@H](C)O1 [c1]
free DOX observed by LCMS ([1]; in the presence of H2O2 (10 μM)): significant levels of free DOX
stability (DOX release) ([1]; buffer alone, reductants (cysteine, homocysteine, glutathione), other oxidants (glutathione disulfide, sodium nitrite, sodium hypochlorite, superoxide, peroxynitrite)): relatively stable
share of H2S production via COS hydrolysis facilitated by CA [2]: ~ 70%
H2S released ([2]; absence of peroxides): negligible amounts of H2S
H2S released ([2]; in presence of H2O2 and carbonic anhydrase): more than 16 μM
